Test results: paper PMC10218234, “Design, Synthesis and Antitumor Activity of 1H-indazole-3-amine Derivatives” (International Journal of Molecular Sciences, 2023)
Like-named read-outs stand apart in the source and are kept apart here.

Assays:
A549 cells = assay: MTT anti-proliferative assay, A549; assay type: cell-based; details: Homo sapiens, read-out: IC50 ± SD, A549
Protocol: (§1) The antiproliferative activity of the target indazole derivatives was evaluated against a panel of human cancer cell lines (human chronic myeloid leukemia cell lines K562; human lung cancer cell lines A549; human prostate cancer cell lines PC-3; human hepatoma cell lines HepG-2) in vitro, and human embryonic kidney cell lines HEK-293 were used to evaluate the cytotoxicity of a normal cell with high activity derivatives by MTT assay. Moreover, 5-fluorouracil (5-Fu), a broad-spectrum drug antitumor drug with therapeutic effects on various cancers, was used as a positive control.
(§2) Lung (A549), chronic myeloid leukemia (K562), prostate (PC3), and live (Hep-G2) cells were purchased from the Cell Bank of the Chinese Academy of Sciences (Kunming, China). A549, K562, and PC-3 cells were cultured in RPMI-1640 medium and the liver cells Hep-G2 were cultured in MEM medium. All mediums were supplemented with 10% FBS, 100 μg/mL penicillin and 100 μg/mL streptomycin. All cells were cultivated in a 5% CO2 incubator at 37 °C.
(§3) To investigate the anticancer activity of indazole derivatives, A549, K562, PC3, and Hep-G2 cells were treated with targets compounds respectively for 48 h in a range of concentrations (from 0.625 to 10 μM) and subjected to a proliferation assay using the MTT assay. Exponentially growing cells were seeded at a density of 5000 cells per well in 96-well plates containing 100 μL of fresh growth medium. After allowing the cells to attach for 24 h, target compounds were added. After incubation for 48 h, viable cells were stained with MTT (0.5 mg/mL) for 4 h, and the produced formazan crystals were dissolved with 150 µL of dimethyl sulfoxide. Absorbance was measured at 490 nm using an automated microplate reader (Tecan, Infinite M200 Pro, Männedorf, Switzerland). The relative cell viability was calculated according to the following equation: Cell viability%=experimental OD value/control OD value×100%Cell inhibition%=control OD value−experimental OD value/control OD value×100%
(§4) Cell inhibition%=control OD value−experimental OD value/control OD value×100%

K562 cells = assay: MTT anti-proliferative assay, K562; assay type: cell-based; details: Homo sapiens, read-out: IC50 ± SD, K562
Protocol: as §1, §2, §3, §4

PC-3 cells = assay: MTT anti-proliferative assay, PC-3; assay type: cell-based; details: Homo sapiens, PC-3, 48 h
Protocol: as §1, §2
as §3, with “Exponentially” for “To investigate the anticancer activity of indazole derivatives, A549, K562, PC3, and Hep-G2 cells were treated with targets compounds respectively for 48 h in a range of concentrations (from 0.625 to 10 μM) and subjected to a proliferation assay using the MTT assay. Exponentially”
as §4

Hep-G2 cells = assay: MTT anti-proliferative assay, Hep-G2; assay type: cell-based; details: Homo sapiens, HepG2, 48 h, read-out: IC50 ± SD, Hep-G2
Protocol: as §1, §2, §3, §4

[1] = Table 1, read-out: IC50 ± SD, PC-3
[2] = Table 2, read-out: IC50 ± SD, PC-3

| SMILES | IC50 (A549 cells; Table 1, 48 h) [µM] | IC50 (K562 cells; Table 1, 48 h) [µM] | IC50 (PC-3 cells; [1]) [µM] | IC50 (Hep-G2 cells; Table 1, 48 h) [µM] | melting point [°C] | IC50 (A549 cells; Table 2, 48 h) [µM] | IC50 (K562 cells; Table 2, 48 h) [µM] | IC50 (PC-3 cells; [2]) [µM] | IC50 (Hep-G2 cells; Table 2, 48 h) [µM] |
| --- | --- | --- | --- | --- | --- | --- | --- | --- | --- |
| O=C(CSc1ccc(F)cc1)Nc1n[nH]c2ccc(-c3cccc(F)c3)cc12 [5b] | 5.25 ± 0.57 | 6.97 ± 0.99 | 38.4 ± 24.1 | > 50 | – | – | – | – | – |
| O=C(CSc1ccc(Br)cc1)Nc1n[nH]c2ccc(-c3cccc(F)c3)cc12 [5c] | 5.63 ± 0.59 | 9.33 ± 0.64 | 60.7 ± 2.91 | 4.76 ± 0.63 | – | – | – | – | – |
| O=C(CSc1ccccc1Br)Nc1n[nH]c2ccc(-c3cccc(F)c3)cc12 [5d] | 16.6 ± 3.22 | 27.2 ± 0.66 | 19.7 ± 2.38 | 45.9 ± 2.24 | – | – | – | – | – |
| COc1ccc(SCC(=O)Nc2n[nH]c3ccc(-c4ccc(F)cc4)cc23)cc1 [5e] | 7.23 ± 0.4 | > 50 | 12.8 ± 3.09 | 8.2 ± 0.91 | – | – | – | – | – |
| COc1ccc(SCC(=O)Nc2n[nH]c3ccc(-c4ccc(OC(F)(F)F)cc4)cc23)cc1 [5f] | 4.48 ± 0.24 | > 50 | 12.5 ± 4.55 | > 50 | 215 to 216 | – | – | – | – |
| O=C(CSc1ccc(F)cc1)Nc1n[nH]c2ccc(-c3ccc(Cl)c(F)c3)cc12 [5g] | 6.4 ± 0.26 | 10.3 ± 1.14 | 18.6 ± 5.73 | 11.9 ± 0.72 | 178 to 200 | – | – | – | – |
| O=C(CSc1ccc(Br)cc1)Nc1n[nH]c2ccc(-c3ccc(Cl)c(F)c3)cc12 [5h] | 9.26 ± 0.37 | 14.3 ± 2.13 | 13 ± 7.53 | 11.3 ± 0.75 | 267 to 268 | – | – | – | – |
| O=C(CSc1ccc([N+](=O)[O-])cc1)Nc1n[nH]c2ccc(-c3ccc(Cl)c(F)c3)cc12 [5i] | 4.43 ± 0.15 | 6.27 ± 1.22 | 6.57 ± 1.1 | 5.5 ± 0.17 | 243 to 246 | – | – | – | – |
| COc1ccc(SCC(=O)Nc2n[nH]c3ccc(-c4cc(F)cc(F)c4)cc23)cc1 [5j] | 3.99 ± 0.16 | 8.49 ± 1.87 | 14.7 ± 4.55 | 5.36 ± 0.25 | 204 to 205 | – | – | – | – |
| O=C(CSc1ccccc1Br)Nc1n[nH]c2ccc(-c3cc(F)cc(F)c3)cc12 [5l] | 14.1 ± 1.71 | 8.19 ± 1.43 | > 50 | 14.9 ± 0.77 | 199 to 200 | – | – | – | – |
| O=C(CSc1ccc(Cl)cc1)Nc1n[nH]c2ccc(-c3cc(F)cc(F)c3)cc12 [5m] | 20.2 ± 3.14 | 13.1 ± 0.46 | > 50 | 35.6 ± 4.21 | 200 to 202 | – | – | – | – |
| O=C(CSc1cccc(Cl)c1)Nc1n[nH]c2ccc(-c3cc(F)cc(F)c3)cc12 [5n] | 20 ± 1.19 | 7.25 ± 1.07 | > 50 | 6.57 ± 0.13 | 193 to 194 | – | – | – | – |
| O=C(CSc1ccc([N+](=O)[O-])cc1)Nc1n[nH]c2ccc(-c3cc(F)cc(F)c3)cc12 [5o] | 6.64 ± 0.47 | 8.09 ± 1.27 | 12.5 ± 2.1 | 8.3 ± 0.56 | – | – | – | – | – |
| O=C(CSc1ccncc1)Nc1n[nH]c2ccc(-c3cc(F)cc(F)c3)cc12 [5p] | 16 ± 0.37 | 15.42 ± 0.15 | 22.5 ± 9.13 | 7.14 ± 0.33 | – | – | – | – | – |
| O=C(CSc1ncccn1)Nc1n[nH]c2ccc(-c3cc(F)cc(F)c3)cc12 [5q] | 16.2 ± 1.46 | 14.3 ± 2.13 | 7.81 ± 0.64 | 6.3 ± 0.03 | – | – | – | – | – |
| COc1ccc(-c2ccc3[nH]nc(NC(=O)CN4CCN(c5ccc(Cl)c(Cl)c5)CC4)c3c2)cc1 [6b] | – | – | – | – | 200 to 201 | 19.9 ± 1.15 | 18.6 ± 2.14 | 9.69 ± 0.26 | 1.69 ± 0.68 |
| COc1ccc(-c2ccc3[nH]nc(NC(=O)CN4CCN(c5ccc(OC)cc5)CC4)c3c2)cc1 [6c] | – | – | – | – | 188 to 189 | 24 ± 2.92 | > 50 | > 50 | 1.23 ± 0.39 |
